Patent US12637413B2, “Fatty acid amide hydrolase (FAAH) cleavable prodrugs of thyromimetics and combination with peripherally restricted FAAH inhibitors” (Autobahn Therapeutics, Inc., priority 2021, dated 2026)

Biological target: T1, recombinant human FAAH (rhFAAH) (Homo sapiens, UniProt O00519)
T1 construct: purchased Cayman Chemical (Ann Arbor, MI, USA)
T1 sequence (O00519 1-579): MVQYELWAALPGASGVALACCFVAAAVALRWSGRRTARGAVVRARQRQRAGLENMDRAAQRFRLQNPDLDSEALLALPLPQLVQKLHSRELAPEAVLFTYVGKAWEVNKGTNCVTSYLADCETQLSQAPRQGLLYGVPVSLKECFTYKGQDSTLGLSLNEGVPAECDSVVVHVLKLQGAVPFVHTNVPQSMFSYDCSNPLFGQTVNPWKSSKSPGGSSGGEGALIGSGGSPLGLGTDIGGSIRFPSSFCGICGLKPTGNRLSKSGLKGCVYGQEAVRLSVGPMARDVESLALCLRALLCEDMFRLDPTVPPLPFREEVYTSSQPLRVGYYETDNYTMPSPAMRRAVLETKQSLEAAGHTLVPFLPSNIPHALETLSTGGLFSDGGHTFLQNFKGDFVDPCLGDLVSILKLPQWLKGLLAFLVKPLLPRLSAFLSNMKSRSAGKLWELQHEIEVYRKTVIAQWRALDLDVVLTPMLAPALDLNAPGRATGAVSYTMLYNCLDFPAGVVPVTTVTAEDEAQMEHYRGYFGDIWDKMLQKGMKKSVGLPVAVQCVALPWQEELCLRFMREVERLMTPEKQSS
Test: FAAH substrate evaluation (acid metabolite formation)
Type: biochemical
Details: observed rate constant for acid metabolite formation; 0.5 ng/μL rhFAAH, 1 μM test compound, room temperature, 0-60 minutes
Experimental: Purified recombinant human FAAH (rhFAAH) was purchased from Cayman Chemical (Ann Arbor, MI, USA). The total volume for each incubation was 400 μL containing a final 0.5 ng/μL rhFAAH, 1 μM test compound, 1.25% ethanol or 1 μM PF-3845 (FAAH inhibitor), and 0.1% bovine serum albumin in Tris-EDTA buffer at pH 8.0). The positive control was LL-341001. The incubation was conducted at the room temperature. At 0, 5, 15, 30 and 60 minutes, an aliquot of 30 μL reaction mixtures was removed and mixed with 300 μL acetonitrile containing 5 ng/mL terfenadine and 10 ng/mL tolbutamide as internal standards to quench the reaction. The resulting mixture was centrifuged at 4000 rpm, 4° C. for 15 minutes, and 100 μL supernatant was ready for LC-MS/MS analysis to measure the formation of acid metabolite.
Acquity Ultra Performance LC system from Waters was used for sample analysis. The chromatography was performed on a reverse phase Kinetex 2.6 μm C18 column, 2.1×30 mm, 100 Å. The mobile phase A comprised of 0.1% formic acid in water and mobile phase B comprised of 0.1% formic acid in acetonitrile with a 2-min run time at the flow rate of 0.8 mL/min for the acid metabolite from positive control or a 1.5 min run time at the flow rate of 0.9 mL/min for the acid metabolite of test compounds. The mass spectrometer (API-5500 and API Q Trap 4000 Applied Biosystems/MDS SCIEX Instruments, Framingham, MA, USA) was operated under ESI positive or negative ion MRM mode.
The formation of acid metabolite was monitored and quantified using one calibration point of 1 μM. The observed rate constant (ke) for the acid metabolite formation was calculated by plotting the metabolite concentration versus time of incubation with the slope being ke and is shown in Table 1.

| Compound | ke |
| --- | --- |
| CC(C)c1cc(Cc2c(Cl)cc(OCC(=O)Nc3cccc(F)c3)cc2Cl)ccc1O [Compound 25] | A (ke is more than or equal to 0.1) |
| CC(C)c1cc(Cc2c(Cl)cc(OCC(=O)NCCc3ccc(O)c(O)c3)cc2Cl)ccc1O [Compound 24] | B (ke is less than 0.1 and more than 0) |
| CC(C)c1cc(Cc2c(Cl)cc(OCC(=O)Nc3cccnn3)cc2Cl)ccc1O [Compound 104, 2-(3,5-dichloro-4-(4-hydroxy-3-isopropylbenzyl)phenoxy)-N-(pyridazin-3-yl)acetamide] | A (ke is more than or equal to 0.1) |
| CC(C)c1c(O)ccc(Cc2c(Cl)cc(OCC(=O)N(C)C)cc2Cl)c1F [Compound 32] | A (ke is more than or equal to 0.1) |
| CC(C)c1cc(Cc2c(Cl)cc(OCC(=O)Nc3ccccc3O)cc2Cl)ccc1O [Compound 20] | A (ke is more than or equal to 0.1) |
| CNC(=O)COc1cc(Cl)c(Cc2ccc(O)c(C(C)C)c2F)c(Cl)c1 [Compound 31] | A (ke is more than or equal to 0.1) |
| CC(C)c1cc(Cc2c(Cl)cc(OCC(=O)Nc3cccnc3)cc2Cl)ccc1O [Compound 114, 2-(3,5-dichloro-4-(4-hydroxy-3-isopropylbenzyl)phenoxy)-N-(pyridin-3-yl)acetamide] | A (ke is more than or equal to 0.1) |
| CC(C)c1c(O)ccc(Cc2c(Cl)cc(OCC(=O)NCCF)cc2Cl)c1F [Compound 36] | A (ke is more than or equal to 0.1) |
| CC(C)c1cc(Cc2c(Cl)cc(OCC(=O)N3CCCC3)cc2Cl)ccc1O [Compound 117, 2-(3,5-dichloro-4-(4-hydroxy-3-isopropylbenzyl)phenoxy)-1-(pyrrolidin-1-yl)ethan-1-one] | B (ke is less than 0.1 and more than 0) |
| CNC(=O)COc1cc(Cl)c(Cc2ccc(O)c(C(C)C)c2)c(Cl)c1F [Compound 37] | B (ke is less than 0.1 and more than 0) |
| CC(C)c1cc(Cc2c(Cl)cc(OCC(=O)Nc3cccc(O)c3)cc2Cl)ccc1O [Compound 21] | A (ke is more than or equal to 0.1) |
| CC(C)c1cc(Cc2c(Cl)cc(OCC(=O)N3CCOCC3)cc2Cl)ccc1O [Compound 133, 2-(3,5-dichloro-4-(4-hydroxy-3-isopropylbenzyl)phenoxy)-1-morpholinoethan-1-one] | A (ke is more than or equal to 0.1) |
| CC(C)c1cc(Cc2c(Cl)cc(OCC(=O)NC3CCCCC3)cc2Cl)ccc1O [Compound 105, N-cyclohexyl-2-(3,5-dichloro-4-(4-hydroxy-3-isopropylbenzyl)phenoxy)acetamide] | C (ke is 0) |
| CC(C)c1cc(Cc2c(Cl)cc(OCC(=O)N(C)CC(F)(F)F)cc2Cl)ccc1O [Compound 131, 2-(3,5-dichloro-4-(4-hydroxy-3-isopropylbenzyl)phenoxy)-N-methyl-N-(2,2,2-trifluoroethyl)acetamide] | B (ke is less than 0.1 and more than 0) |
| Cc1noc(NC(=O)COc2cc(Cl)c(Cc3ccc(O)c(C(C)C)c3)c(Cl)c2)c1C [Compound 103, 2-(3,5-dichloro-4-(4-hydroxy-3-isopropylbenzyl)phenoxy)-N-(3,4-dimethylisoxazol-5-yl)acetamide] | A (ke is more than or equal to 0.1) |
| CC(C)c1cc(Cc2c(Cl)cc(OCC(=O)Nc3ccncc3)cc2Cl)ccc1O [Compound 115, 2-(3,5-dichloro-4-(4-hydroxy-3-isopropylbenzyl)phenoxy)-N-(pyridin-4-yl)acetamide] | A (ke is more than or equal to 0.1) |
| CC(C)c1c(O)ccc(Cc2c(Cl)cc(OCC(=O)N(C)C)c(F)c2Cl)c1F [Compound 40] | B (ke is less than 0.1 and more than 0) |
| CC(C)c1cc(Cc2c(Cl)cc(OCC(=O)N(C)C)c(F)c2Cl)ccc1O [Compound 38] | B (ke is less than 0.1 and more than 0) |
| CNC(=O)COc1cc(F)c(Cc2ccc(O)c(C(C)C)c2)c(Cl)c1F [Compound 42] | A (ke is more than or equal to 0.1) |
| CC(C)c1cc(Cc2c(Cl)cc(OCC(=O)NCc3ccccc3)cc2Cl)ccc1O [Compound 22] | A (ke is more than or equal to 0.1) |

Results, then the compound that gave them:

| ke | Compound |
| --- | --- |
| B (ke is less than 0.1 and more than 0) | CCN(C)C(=O)COc1cc(Cl)c(Cc2ccc(O)c(C(C)C)c2)c(Cl)c1 [Compound 130, 2-(3,5-dichloro-4-(4-hydroxy-3-isopropylbenzyl)phenoxy)-N-ethyl-N-methylacetamide] |
| A (ke is more than or equal to 0.1) | CONC(=O)COc1cc(Cl)c(Cc2ccc(O)c(C(C)C)c2)c(Cl)c1 [Compound 28] |
| B (ke is less than 0.1 and more than 0) | CC(C)c1cc(Cc2c(Cl)cc(OCC(=O)NC(CO)CO)cc2Cl)ccc1O [Compound 11] |
| A (ke is more than or equal to 0.1) | CC(C)NC(=O)COc1cc(Cl)c(Cc2ccc(O)c(C(C)C)c2)c(Cl)c1 [Compound 126, 2-(3,5-dichloro-4-(4-hydroxy-3-isopropylbenzyl)phenoxy)-N-isopropylacetamide] |
| B (ke is less than 0.1 and more than 0) | CC(C)c1cc(Cc2c(Cl)cc(OCC(=O)NC[C@@H](C)O)cc2Cl)ccc1O [Compound 7] |
| A (ke is more than or equal to 0.1) | CC(C)c1cc(Cc2c(Cl)cc(OCC(=O)NN)cc2Cl)ccc1O [Compound 27] |
| A (ke is more than or equal to 0.1) | CC(C)c1cc(Cc2c(Cl)cc(OCC(=O)NO)cc2Cl)ccc1O [Compound 26] |
| B (ke is less than 0.1 and more than 0) | CC(C)c1cc(Cc2c(Cl)cc(OCC(=O)N(C)CCO)cc2Cl)ccc1O [Compound 123, 2-(3,5-dichloro-4-(4-hydroxy-3-isopropylbenzyl)phenoxy)-N-(2-hydroxyethyl)-N-methylacetamide] |
| A (ke is more than or equal to 0.1) | CCCNC(=O)COc1cc(Cl)c(Cc2ccc(O)c(C(C)C)c2)c(Cl)c1 [Compound 3] |
| B (ke is less than 0.1 and more than 0) | CC(C)c1cc(Cc2c(Cl)cc(OCC(=O)NCCN)cc2Cl)ccc1O [Compound 12] |
| B (ke is less than 0.1 and more than 0) | CCCN(C)C(=O)COc1cc(Cl)c(Cc2ccc(O)c(C(C)C)c2)c(Cl)c1 [Compound 129, 2-(3,5-dichloro-4-(4-hydroxy-3-isopropylbenzyl)phenoxy)-N-methyl-N-propylacetamide] |
| A (ke is more than or equal to 0.1) | CC(C)c1cc(Cc2c(Cl)cc(OCC(=O)N[C@@H](C)CO)cc2Cl)ccc1O [Compound 10] |
| B (ke is less than 0.1 and more than 0) | CC(C)c1cc(Cc2c(Cl)cc(OCC(=O)NC[C@H](C)O)cc2Cl)ccc1O [Compound 8] |
| B (ke is less than 0.1 and more than 0) | C=CCN(C)C(=O)COc1cc(Cl)c(Cc2ccc(O)c(C(C)C)c2)c(Cl)c1 [Compound 128, N-allyl-2-(3,5-dichloro-4-(4-hydroxy-3-isopropylbenzyl)phenoxy)-N-methylacetamide] |
| B (ke is less than 0.1 and more than 0) | CC(C)c1cc(Cc2c(Cl)cc(OCC(=O)N(C)C)cc2Cl)ccc1O [Compound 19] |
| B (ke is less than 0.1 and more than 0) | CC(C)c1cc(Cc2c(Cl)cc(OCC(=O)NCCc3ccccc3)cc2Cl)ccc1O [Compound 23] |
| A (ke is more than or equal to 0.1) | CC(C)c1cc(Cc2c(Cl)cc(OCC(=O)NCCF)cc2Cl)ccc1O [Compound 14] |
| A (ke is more than or equal to 0.1) | CC(C)c1cc(Cc2c(Cl)cc(OCC(=O)NCC#N)cc2Cl)ccc1O [Compound 29] |
